Experimental findings from patent US12371454B2, “Cyclic peptide compound having Kras inhibitory action” (priority 2019, dated 2025) are described below.

The test system of the test is Human pancreatic cancer cell line AsPC-1. Kind of test: Measurement of AsPC-1 cell growth inhibition (AsPC-1 CGI). It counts as cell-based. As to conditions: 96 h. The method, boiled down:
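AsPC-1 cells in 15% FBS RPMI-1640 were exposed to test compound for 96 hours at 37° C, with CellTiter-Glo as endpoint.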

Starred links: 1 amine or outer side, 2 acyl side, 3 side chain; linkers in the order of their positions; H or OH if unused. Positions of bridges follow the written chain, without caps; N, C: chain ends. Non-standard residues stand in square brackets, D forms with d. Residues, ends and D or L forms follow the SMILES beside them. *: point of attachment. hPhe(3-Cl-4-CF3) = N[C@@H](CCc1ccc(C(F)(F)F)c(Cl)c1)C(=O)O; X58 = O=C([C@H](CCc1ccc(OC(F)(F)F)c(F)c1)N[*:1])[*:2]; X60 = CC(C)Oc1cc(CC[C@H](N[*:1])C(=O)[*:2])cc(Cl)c1Cl; X57 = N#Cc1cc(CC[C@H](N[*:1])C(=O)[*:2])ccc1C(F)(F)F; X75 = O=C([C@H](CCc1ccc2c(c1)OC(F)(F)O2)N[*:1])[*:2]; X68 = O=C([C@H](CCc1ccc(OC(F)F)c(F)c1)N[*:1])[*:2]; X34 = O=C([C@H](CCc1ccc(C(F)(F)F)nc1)N[*:1])[*:2]; X37 = O=C([C@H](CCc1ccc(C(F)F)c(F)c1)N[*:1])[*:2]; X16 = Cn1ccc2ccc(CC[C@H](N[*:1])C(=O)[*:2])cc21; X85 = O=C([C@@H]1C[C@@H](n2ccnn2)CN1[*:1])[*:2]; X44 = O=C([C@H](CCc1ccc2ncccc2c1)N[*:1])[*:2]; X86 = O=C([C@H](CCc1ccc2occc2c1)N[*:1])[*:2]; X9 = O=C([C@H](CCc1ccc2cccnc2c1)N[*:1])[*:2]; X72 = COc1ccc(CC[C@H](N[*:1])C(=O)[*:2])cn1; NMeAla(cPent) = CN[C@@H](CC1CCCC1)C(=O)O; NMeGly(cPent) = CN[C@H](C(=O)O)C1CCCC1; NMeCha = CN[C@@H](CC1CCCCC1)C(=O)O; NMeD = CN[C@@H](CC(=O)O)C(=O)O; NMeL = CN[C@@H](CC(C)C)C(=O)O; NMeV = CN[C@H](C(=O)O)C(C)C; Azetidin(1-yl) = C1CN(*)C1; NMeA = CN[C@@H](C)C(=O)O; Piperidide = C1CCN(*)CC1; Pyrrolidide = C1CCN(*)C1; Ac5c = NC1(C(=O)O)CCCC1; Aze = O=C(O)[C@@H]1CCN1; Sar = CNCC(=O)O

What is called IC50 is the concentration that gives 50% inhibition. A high value points to lower potency. The molecule `CC[C@H](C)[C@@H]1NC(=O)[C@H](CC(C)C)N(C)C(=O)C[C@@H](C(=O)N2CCCCC2)N(C)C(=O)[C@H](C2CCCC2)N(C)C(=O)C2(CCCC2)NC(=O)[C@@H]2CCCN2C(=O)[C@H](CCc2ccc3occc3c2)NC(=O)CN(C)C(=O)[C@H](CC2CCCCC2)N(C)C(=O)[C@@H]2CCN2C(=O)[C@H](C)N(C)C1=O` [Compound 2063] ([NMeL]I[NMeA][Aze][NMeCha][Sar][X86]P[Ac5c][NMeGly(cPent)][NMeD]-Piperidide; lactam N-11) gave an IC50 of 50 to 100 nM.
As for `CC[C@H](C)[C@@H]1NC(=O)[C@H](CC(C)C)N(C)C(=O)C[C@@H](C(=O)N2CCCCC2)N(C)C(=O)[C@H](C2CCCC2)N(C)C(=O)C2(CCCC2)NC(=O)[C@@H]2CCCN2C(=O)[C@H](CCc2ccc3ccn(C)c3c2)NC(=O)CN(C)C(=O)[C@H](CC2CCCCC2)N(C)C(=O)[C@@H]2CCN2C(=O)[C@H](C)N(C)C1=O` [Compound 2065] ([NMeL]I[NMeA][Aze][NMeCha][Sar][X16]P[Ac5c][NMeGly(cPent)][NMeD]-Piperidide; lactam N-11), the IC50 was 100 to 500 nM.
Consider `CC[C@H](C)[C@@H]1NC(=O)[C@H](CC(C)C)N(C)C(=O)C[C@@H](C(=O)N2CCCCC2)N(C)C(=O)[C@H](C2CCCC2)N(C)C(=O)C2(CCCC2)NC(=O)[C@@H]2CCCN2C(=O)[C@H](CCc2ccc(OC(F)(F)F)c(F)c2)NC(=O)CN(C)C(=O)[C@H](CC2CCCCC2)N(C)C(=O)[C@@H]2CCN2C(=O)[C@H](C)N(C)C1=O` [Compound 2067] ([NMeL]I[NMeA][Aze][NMeCha][Sar][X58]P[Ac5c][NMeGly(cPent)][NMeD]-Piperidide; lactam N-11), for which the IC50 lay in the range of 20 to 50 nM.
To `CC[C@H](C)[C@@H]1NC(=O)[C@H](CC(C)C)N(C)C(=O)C[C@@H](C(=O)N2CCCCC2)N(C)C(=O)[C@H](C2CCCC2)N(C)C(=O)C2(CCCC2)NC(=O)[C@@H]2CCCN2C(=O)[C@H](CCc2ccc3ncccc3c2)NC(=O)CN(C)C(=O)[C@H](CC2CCCCC2)N(C)C(=O)[C@@H]2CCN2C(=O)[C@H](C)N(C)C1=O` [Compound 2070] ([NMeL]I[NMeA][Aze][NMeCha][Sar][X44]P[Ac5c][NMeGly(cPent)][NMeD]-Piperidide; lactam N-11) belongs over 500 nM.
To `CC[C@H](C)[C@@H]1NC(=O)[C@H](CC(C)C)N(C)C(=O)C[C@@H](C(=O)N2CCCCC2)N(C)C(=O)[C@H](C2CCCC2)N(C)C(=O)C2(CCCC2)NC(=O)[C@@H]2CCCN2C(=O)[C@H](CCc2ccc(C(F)(F)F)c(C#N)c2)NC(=O)CN(C)C(=O)[C@H](CC2CCCCC2)N(C)C(=O)[C@@H]2CCN2C(=O)[C@H](C)N(C)C1=O` [Compound 2072] ([NMeL]I[NMeA][Aze][NMeCha][Sar][X57]P[Ac5c][NMeGly(cPent)][NMeD]-Piperidide; lactam N-11) belongs 20 to 50 nM.
In the case of `CC[C@H](C)[C@@H]1NC(=O)[C@H](CC(C)C)N(C)C(=O)C[C@@H](C(=O)N2CCCCC2)N(C)C(=O)[C@H](C2CCCC2)N(C)C(=O)C2(CCCC2)NC(=O)[C@@H]2CCCN2C(=O)[C@H](CCc2ccc3c(c2)OC(F)(F)O3)NC(=O)CN(C)C(=O)[C@H](CC2CCCCC2)N(C)C(=O)[C@@H]2CCN2C(=O)[C@H](C)N(C)C1=O` [Compound 2074] ([NMeL]I[NMeA][Aze][NMeCha][Sar][X75]P[Ac5c][NMeGly(cPent)][NMeD]-Piperidide; lactam N-11) it was 50 to 100 nM.
Molecule `CC[C@H](C)[C@@H]1NC(=O)[C@H](CC(C)C)N(C)C(=O)C[C@@H](C(=O)N2CCCCC2)N(C)C(=O)[C@H](C2CCCC2)N(C)C(=O)C2(CCCC2)NC(=O)[C@@H]2CCCN2C(=O)[C@H](CCc2ccc(OC(F)F)c(F)c2)NC(=O)CN(C)C(=O)[C@H](CC2CCCCC2)N(C)C(=O)[C@@H]2CCN2C(=O)[C@H](C)N(C)C1=O` [Compound 2076] ([NMeL]I[NMeA][Aze][NMeCha][Sar][X68]P[Ac5c][NMeGly(cPent)][NMeD]-Piperidide; lactam N-11) had an IC50 of 50 to 100 nM.
The molecule `CC[C@H](C)[C@@H]1NC(=O)[C@H](CC(C)C)N(C)C(=O)C[C@@H](C(=O)N2CCCCC2)N(C)C(=O)[C@H](C2CCCC2)N(C)C(=O)C2(CCCC2)NC(=O)[C@@H]2CCCN2C(=O)[C@H](CCc2ccc3cccnc3c2)NC(=O)CN(C)C(=O)[C@H](CC2CCCCC2)N(C)C(=O)[C@@H]2CCN2C(=O)[C@H](C)N(C)C1=O` [Compound 2077] ([NMeL]I[NMeA][Aze][NMeCha][Sar][X9]P[Ac5c][NMeGly(cPent)][NMeD]-Piperidide; lactam N-11) registered an IC50 of 100 to 500 nM.
To `CC[C@H](C)[C@@H]1NC(=O)[C@H](CC(C)C)N(C)C(=O)C[C@@H](C(=O)N2CCCCC2)N(C)C(=O)[C@H](C2CCCC2)N(C)C(=O)C2(CCCC2)NC(=O)[C@@H]2CCCN2C(=O)[C@H](CCc2ccc(C(F)(F)F)nc2)NC(=O)CN(C)C(=O)[C@H](CC2CCCCC2)N(C)C(=O)[C@@H]2CCN2C(=O)[C@H](C)N(C)C1=O` [Compound 2078] ([NMeL]I[NMeA][Aze][NMeCha][Sar][X34]P[Ac5c][NMeGly(cPent)][NMeD]-Piperidide; lactam N-11) belongs 100 to 500 nM.
To `CC[C@H](C)[C@@H]1NC(=O)[C@H](C)N(C)C(=O)C[C@@H](C(=O)N2CCCCC2)N(C)C(=O)[C@H](C(C)C)N(C)C(=O)C2(CCCC2)NC(=O)[C@@H]2CCCN2C(=O)[C@H](CCc2cc(Cl)c(Cl)c(OC(C)C)c2)NC(=O)CN(C)C(=O)[C@H](CC2CCCCC2)N(C)C(=O)CN(C)C(=O)CN(C)C1=O` [Compound 2079] ([NMeA]I[Sar][Sar][NMeCha][Sar][X60]P[Ac5c][NMeV][NMeD]-Piperidide; lactam N-11; C-terminus assumed) belongs over 500 nM.
To `CC[C@H](C)[C@@H]1NC(=O)[C@H](CC(C)C)N(C)C(=O)C[C@@H](C(=O)N2CCCCC2)N(C)C(=O)[C@H](C2CCCC2)N(C)C(=O)C2(CCCC2)NC(=O)[C@@H]2CCCN2C(=O)[C@H](CCc2ccc(OC)nc2)NC(=O)CN(C)C(=O)[C@H](CC2CCCCC2)N(C)C(=O)[C@@H]2CCN2C(=O)[C@H](C)N(C)C1=O` [Compound 2084] ([NMeL]I[NMeA][Aze][NMeCha][Sar][X72]P[Ac5c][NMeGly(cPent)][NMeD]-Piperidide; lactam N-11) belongs 100 to 500 nM; to `CC[C@H](C)[C@@H]1NC(=O)[C@H](CC(C)C)N(C)C(=O)C[C@@H](C(=O)N2CCCCC2)N(C)C(=O)[C@H](C2CCCC2)N(C)C(=O)C2(CCCC2)NC(=O)[C@@H]2CCCN2C(=O)[C@H](CCc2ccc(C(F)F)c(F)c2)NC(=O)CN(C)C(=O)[C@H](CC2CCCCC2)N(C)C(=O)[C@@H]2CCN2C(=O)[C@H](C)N(C)C1=O` [Compound 2085, (5S,8S,11S,15S,18S,23aS,29S,35S,37aS)-8-((S)-sec-butyl)-35-(cyclohexylmethyl)-18-cyclopentyl-29-(4-(difluoromethyl)-3-fluorophenethyl)-11-isobutyl-5,6,12,16,19,33,36-heptamethyl-15-(piperidin-1-carbonyl)docosahydro-2H,4H-spiro[azeto[2,1-u]pyrrolo[2,1-i][1,4,7,10,13,16,19,22,25,28,31]undecazacyclotetratriacontyne-21,1′-cyclopentane]-4,7,10,13,17,20,23,28,31,34,37(14H,22H)-undecone] ([NMeL]I[NMeA][Aze][NMeCha][Sar][X37]P[Ac5c][NMeGly(cPent)][NMeD]-Piperidide; lactam N-11), 100 to 500 nM; to `CC[C@H](C)[C@@H]1NC(=O)[C@H](CC(C)C)N(C)C(=O)C[C@@H](C(=O)N(C)C)N(C)C(=O)[C@H](C2CCCC2)N(C)C(=O)C2(CCCC2)NC(=O)[C@H](CC(=O)N2CCCC2)N(C)C(=O)[C@H](CCc2ccc(C(F)(F)F)c(Cl)c2)NC(=O)CN(C)C(=O)[C@H](CC2CCCCC2)N(C)C(=O)[C@@H]2CCN2C(=O)[C@H](C)N(C)C1=O` [Compound 2097] ([NMeL]I[NMeA][Aze][NMeCha][Sar][hPhe(3-Cl-4-CF3)][NMeD](Pyrrolidide)[Ac5c][NMeGly(cPent)][NMeD]-NMe2; lactam N-11), 100 to 500 nM.
In turn, `CC[C@H](C)[C@@H]1NC(=O)[C@H](CC(C)C)N(C)C(=O)C[C@@H](C(=O)N(C)C)N(C)C(=O)[C@H](C2CCCC2)N(C)C(=O)C2(CCCC2)NC(=O)[C@H](CC(=O)N2CCC2)N(C)C(=O)[C@H](CCc2ccc(C(F)(F)F)c(Cl)c2)NC(=O)CN(C)C(=O)[C@H](CC2CCCCC2)N(C)C(=O)[C@@H]2CCN2C(=O)[C@H](C)N(C)C1=O` [Compound 2102] ([NMeL]I[NMeA][Aze][NMeCha][Sar][hPhe(3-Cl-4-CF3)][NMeD](Azetidin(1-yl))[Ac5c][NMeGly(cPent)][NMeD]-NMe2; lactam N-11) gave an IC50 of 100 to 500 nM.
To `CC[C@H](C)[C@@H]1NC(=O)[C@H](CC(C)C)N(C)C(=O)C[C@@H](C(=O)N2CCCCC2)N(C)C(=O)[C@H](C(C)C)N(C)C(=O)C2(CCCC2)NC(=O)[C@@H]2C[C@@H](n3ccnn3)CN2C(=O)[C@H](CCc2ccc(C(F)(F)F)c(Cl)c2)NC(=O)CN(C)C(=O)[C@H](CC2CCCC2)N(C)C(=O)CN(C)C(=O)CN(C)C1=O` [Compound 2113, (3S,9S,18S,21S,25S,28S,34S,36R)-3-[2-[3-chloro-4-(trifluoromethyl)phenyl]ethyl]-9-(cyclopentylmethyl)-21-isobutyl-28-isopropyl-7,10,13,16,22,26,29-heptamethyl-18-[(1S)-1-methylpropyl]-25-(piperidine-1-carbonyl)-36-(triazol-1-yl)spiro[1,4,7,10,13,16,19,22,26,29,32-undecazabicyclo[32.3.0]heptatriacontane-31,1′-cyclopentane]-2,5,8,11,14,17,20,23,27,30,33-undecone] ([NMeL]I[Sar][Sar][NMeAla(cPent)][Sar][hPhe(3-Cl-4-CF3)][X85][Ac5c][NMeV][NMeD]-Piperidide; lactam N-11) belongs over 500 nM.
